Results published in patent publication US5266319A, “Tannin derivatives and their use for treatment of hypertension” (National Science Council, priority 1992, dated 1993).

Key:
[1] = system: contraction of rat blood vessel (octopamine); experiment: inhibition of octopamine-induced contraction of rat blood vessel; assay type: in vivo; conditions: octopamine 8 × 10^-4 g/kg; dose 1 mg/kg i.v.; anesthetized normal rats; Means ± S.D.; n=8
Procedure: (§1) The effect on the contraction of rat blood vessel Norepinephrine and octopamine were injected into various anesthetized normal rats respectively, so that a contraction of rat blood vessels was induced and the blood pressure increased. […] Therefore, the tannins are potent in inhibiting the contraction of blood vessels and the effect of the tannins on the wall of blood vessel is also significant.

normal rats (WKY) = experiment: depression of tail arterial blood pressure in normal rats (WKY); assay type: in vivo, rat; conditions: injected, Means±S.D., N=11
Procedure: (§2) The effect on the blood pressure of spontaneously hypertensive rats (SHR) and normal rats (WKY)
(§3) The tannins obtained in the example 1 were injected into various rats respectively at different concentrations.
(§4) The data (Means±S.D.) in table 1 represents the value of the depression range of blood pressure (N=11). In comparison to conventional antihypertensive drugs, guanethidine can depress the blood pressure of hypertensive rats in a range of 28.8±7.95 mmHg (N=8) with a injection concentration of 1 mg/kg, prazosin in a range of 31.4±7.17 mmHg (N=8) and nifedipine in a range of 10.8±2.78 mmHg (N=8) at the same concentration.

[2] = system: spontaneously hypertensive rats (SHR); experiment: depression of tail arterial blood pressure in spontaneously hypertensive rats (SHR); assay type: in vivo, rat; conditions: for Depression of blood pressure, SHR: injected, Means±S.D., N=11; for depress the blood pressure of hypertensive rats (conventional antihypertensive drugs): 1 mg/kg injection, N=8
Procedure: as §2, §3, §4

norepinephrine = experiment: concentration of norepinephrine in blood (plasma NE); assay type: in vivo, rat; conditions: injected to the veins, after ten minutes, Means ± S.D, N=6, Control 3.55 ± 0.31
Procedure: The effect on the concentration of norepinephrine in blood Four tannins were injected to the veins of various rats respectively at different concentrations. After ten minutes, the blood of the rats were sampled to determine the concentration of norepinephrine in their blood. Obviously, these compounds can reduce the concentration of norepinephrine,i.e., they can inhibit the secretion of norepinephrine and relax the adrenergic tension, and therefore the blood pressure can be reduced.

rats = experiment: lethal dosage (LD50) in rats; assay type: in vivo
Procedure: (§5) Furthermore, the lethal dosages (LD50) for the rats were determined. The LD50 of corilagin and geraniin were greater than 100 mg/kg, and the LD50 of 6-O-galloyl-D-glucose and 1,2,3,4,6-penta-O-galloyl-D-glucose were greater than 50 mg/kg. Therefore, these four tannins can be used as a safe and effective […] drugs.

[3] = system: contraction of rat blood vessel (norepinephrine); experiment: inhibition of norepinephrine-induced contraction of rat blood vessel; assay type: in vivo; conditions: norepinephrine 10^-6 g/kg; dose 1 mg/kg i.v.; anesthetized normal rats; Means ± S.D.; n=8
Procedure: as §1

[4] = lethal dosage (LD50) in rats; assay type: in vivo; conditions: rat, in vivo
Procedure: as §5

SMILES: O=C1O[C@H]2[C@@H]3OC(=O)c4cc(O)c(O)c(O)c4-c4c(cc(O)c(O)c4O)C(=O)OC[C@H]2O[C@@H](OC(=O)c2cc(O)c(O)c(O)c2)[C@@H]3OC(=O)c2cc(O)c(O)c3c2[C@@H]2C1=CC(=O)[C@](O)(O3)C2(O)O [Geraniin, geraniin]
- Inhibition (%), Octopamine [1]: 74.8 ± 13.5%
- Depression of blood pressure, WKY (normal rats (WKY); 1 mg/kg): 3.57 ± 4.72 mmHg
- Depression of blood pressure, WKY (normal rats (WKY); 5 mg/kg): 13.28 ± 6.67 mmHg
- Depression of blood pressure, SHR ([2]; 1 mg/kg): 19.28 ± 5.49 mmHg
- Depression of blood pressure, SHR ([2]; 5 mg/kg): 25.85 ± 4.18 mmHg
- Plasma NE (norepinephrine; 0.5 mg/kg): 2.66 ± 0.19 pmol/mL
- Plasma NE (norepinephrine; 1 mg/kg): 2.17 ± 0.09 pmol/mL
- LD50 (rats): greater than 100 mg/kg
- Inhibition (%), Norepinephrine [3]: 87.1 ± 6.5%

SMILES: COc1cc2nc(N3CCN(C(=O)c4ccco4)CC3)nc(N)c2cc1OC [prazosin, reference compound]
- depress the blood pressure of hypertensive rats (conventional antihypertensive drugs) [2]: 31.4±7.17 mmHg

SMILES: O=C(OC[C@H]1OC(O)[C@H](O)[C@@H](O)[C@@H]1O)c1cc(O)c(O)c(O)c1 (stereo partly drawn) [6-O-galloyl-D-glucose]
- Inhibition (%), Octopamine [1]: 65.3 ± 11.3%
- Depression of blood pressure, WKY (normal rats (WKY); 1 mg/kg): 5.81 ± 5.07 mmHg
- Depression of blood pressure, WKY (normal rats (WKY); 5 mg/kg): 5.21 ± 3.48 mmHg
- Depression of blood pressure, SHR ([2]; 1 mg/kg): 17.28 ± 7.08 mmHg
- Depression of blood pressure, SHR ([2]; 5 mg/kg): 24.12 ± 9.93 mmHg
- Plasma NE (norepinephrine; 1 mg/kg): 2.14 ± 0.09 pmol/mL
- Plasma NE (norepinephrine; 5 mg/kg): 1.76 ± 0.22 pmol/mL
- LD50 [4]: > 50 mg/kg
- Inhibition (%), Norepinephrine [3]: 64.1 ± 15.1%

SMILES: O=C(OC[C@H]1O[C@@H](OC(=O)c2cc(O)c(O)c(O)c2)[C@H](OC(=O)c2cc(O)c(O)c(O)c2)[C@@H](OC(=O)c2cc(O)c(O)c(O)c2)[C@@H]1OC(=O)c1cc(O)c(O)c(O)c1)c1cc(O)c(O)c(O)c1 [1,2,3,4,6-penta-O-galloyl-D-glucose, 1,2,3,4,6-penta-O-galloyl-β-D-glucose]
- Inhibition (%), Octopamine [1]: 72.1 ± 14.8%
- Depression of blood pressure, WKY (normal rats (WKY); 1 mg/kg): 2.62 ± 2.33 mmHg
- Depression of blood pressure, WKY (normal rats (WKY); 5 mg/kg): 5.74 ± 2.41 mmHg
- Depression of blood pressure, SHR ([2]; 1 mg/kg): 13.28 ± 6.22 mmHg
- Depression of blood pressure, SHR ([2]; 5 mg/kg): 29.57 ± 13.38 mmHg
- Plasma NE (norepinephrine; 1 mg/kg): 1.94 ± 0.19 pmol/mL
- Plasma NE (norepinephrine; 5 mg/kg): 1.23 ± 0.21 pmol/mL
- LD50 [4]: > 50 mg/kg
- Inhibition (%), Norepinephrine [3]: 70.6 ± 10.7%

SMILES: O=C(O[C@@H]1O[C@@H]2COC(=O)c3cc(O)c(O)c(O)c3-c3c(cc(O)c(O)c3O)C(=O)O[C@H]([C@H]1O)[C@@H]2O)c1cc(O)c(O)c(O)c1 [Corilagin, corilagin]
- Inhibition (%), Octopamine [1]: 65.5 ± 27.5%
- Depression of blood pressure, WKY (normal rats (WKY); 1 mg/kg): 3.85 ± 2.64 mmHg
- Depression of blood pressure, WKY (normal rats (WKY); 5 mg/kg): 10.85 ± 4.89 mmHg
- Depression of blood pressure, SHR ([2]; 1 mg/kg): 17.85 ± 3.38 mmHg
- Depression of blood pressure, SHR ([2]; 5 mg/kg): 26.57 ± 7.92 mmHg
- Plasma NE (norepinephrine; 0.5 mg/kg): 2.19 ± 0.22 pmol/mL
- Plasma NE (norepinephrine; 1 mg/kg): 1.55 ± 0.19 pmol/mL
- LD50 [4]: > 100 mg/kg
- Inhibition (%), Norepinephrine [3]: 83.4 ± 7.3%

SMILES: COC(=O)C1=C(C)NC(C)=C(C(=O)OC)C1c1ccccc1[N+](=O)[O-] [nifedipine, reference compound]
- depress the blood pressure of hypertensive rats (conventional antihypertensive drugs) [2]: 10.8±2.78 mmHg

SMILES: N=C(N)NCCN1CCCCCCC1 [guanethidine, reference compound]
- depress the blood pressure of hypertensive rats (conventional antihypertensive drugs) [2]: 28.8±7.95 mmHg
